Experimental data: patent US20050282755A1, “Compositions having antimicrobial activity and uses thereof” (priority 2004, published 2005)
Converted amounts (≈) assume the structure as drawn. Non-standard residues stand in square brackets, D forms with d. Residues, ends and D or L forms follow the SMILES beside them. *: point of attachment. Lauroyl = CCCCCCCCCCCC(=O)*

Tests used:
Assay type in all cases: cell-based
[1] = system: Candida albicans ATCC 18804; assay: MIC in yeasts, NCCLS M27-A2 broth microdilution, RPMI 1640 (Table 9, letter e); details: ATCC 18804
In short: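 Broth microdilution per NCCLS M27-A2 in RPMI 1640 with glutamine and phenol red, final inoculum 0.5×10^3–2.5×10^3 CFU/milliliter. Incubated 24 to 48 hours at 37° C; MIC is the lowest peptide concentration with no visible growth.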

[2] = system: Propionibacterium acnes ATCC 6919
Experimental: A second method that was used to determine the MIC in P. acnes for selected antimicrobial agents was a non-standard broth microdilution method that used an assay buffer composed of reinforced Clostridial broth. Briefly, a log-phase bacterial culture of P. acnes was used to inoculate wells of a 96-well plate so that the final inoculum for each well contained 5×10^5 to 1×10^6 CFU/milliliter. […] Plates were incubated for 48-72 hours at 37° C. in a GasPak anaerobic chamber. The lowest concentration of peptide that contained no visible growth as evidenced by a lack of turbidity when compared to the control (no peptide) was determined as the MIC. MIC values that utilized this method of MIC determination are indicated in Table 9 with a subscript letter “d.”

[3] = system: Staphylococcus aureus ATCC 29213; assay: MIC, NCCLS M7-A6 broth microdilution, cation-adjusted Mueller Hinton broth (Table 9, no superscript); details: ATCC 29213
In short: (§1)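 Broth microdilution in cation-adjusted Mueller Hinton broth, log-phase inoculum giving 5×10^5 to 1×10^6 CFU/milliliter per well. Overnight incubation at 37° C. MIC taken as lowest peptide concentration with no visible turbidity versus a no-peptide control.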

[4] = system: Salmonella dublin (Lane); assay: MIC, NCCLS M7-A6 broth microdilution (Table 9, no superscript)
In short: as §1

Compound | MIC C. albicans [1] | MIC P. acnes [2] | MIC S. aureus [3] | MIC S. dublin [4]
CSCC[C@H](NC(=O)[C@H](Cc1ccccc1)NC(=O)[C@H](CC(N)=O)NC(=O)[C@H](CCCNC(=N)N)NC(=O)[C@H](C)NC(=O)[C@@H](NC(=O)[C@H](CC(=O)O)NC(=O)[C@H](CCCNC(=N)N)NC(=O)[C@H](Cc1c[nH]c2ccccc12)NC(=O)[C@H](CCCNC(=N)N)NC(=O)[C@H](CO)NC(=O)[C@H](CCCNC(=N)N)NC(=O)CNC(=O)[C@@H](NC(=O)[C@H](CCCNC(=N)N)NC(=O)[C@H](C)NC(=O)[C@@H](NC(=O)[C@H](CCCNC(=N)N)NC(=O)[C@@H](NC(C)=O)[C@@H](C)O)C(C)C)[C@@H](C)O)C(C)C)C(=O)N[C@@H](CCCNC(=N)N)C(N)=O [Peptide 38] (Ac-TRVARTGRSRWRDVARNFMR-NH2) | 16e ug/mL | 25 µg·days/mL | >64 µg/mL | >64 µg/mL
CCCCCCCCCCCC(=O)N[C@H](C(=O)N[C@@H](CCCNC(=N)N)C(=O)N[C@H](C(=O)N[C@@H](C)C(=O)N[C@@H](CCCNC(=N)N)C(=O)N[C@H](C(=O)NCC(=O)N[C@@H](CCCNC(=N)N)C(=O)N[C@@H](CO)C(=O)N[C@@H](CCCNC(=N)N)C(=O)N[C@@H](Cc1c[nH]c2ccccc12)C(=O)N[C@@H](CCCNC(=N)N)C(=O)N[C@@H](CC(=O)O)C(=O)N[C@H](C(=O)N[C@@H](C)C(=O)N[C@@H](CCCNC(=N)N)C(=O)N[C@@H](CC(N)=O)C(=O)N[C@@H](Cc1ccccc1)C(=O)N[C@@H](CCSC)C(=O)N[C@@H](CCCNC(=N)N)C(N)=O)C(C)C)[C@@H](C)O)C(C)C)[C@@H](C)O [Peptide 69] (Lauroyl-TRVARTGRSRWRDVARNFMR-NH2) | 16e ug/mL | 12.5 µg·days/mL | 4 µg/mL (≈ 1.5 µM) | 16 µg/mL (≈ 5.99 µM)
CCCCCCCCCCCC(=O)N[C@@H](C(=O)N[C@H](CCCNC(=N)N)C(=O)N[C@@H](C(=O)N[C@H](C)C(=O)N[C@H](CCCNC(=N)N)C(=O)N[C@@H](C(=O)NCC(=O)N[C@H](CCCNC(=N)N)C(=O)N[C@H](CO)C(=O)N[C@H](CCCNC(=N)N)C(=O)N[C@H](Cc1c[nH]c2ccccc12)C(=O)N[C@H](CCCNC(=N)N)C(=O)N[C@H](CC(=O)O)C(=O)N[C@H](Cc1c[nH]c2ccccc12)C(=O)N[C@H](C)C(=O)N[C@H](CCCNC(=N)N)C(=O)N[C@H](CC(N)=O)C(=O)N[C@H](Cc1ccccc1)C(=O)N[C@H](CCSC)C(=O)N[C@H](CCCNC(=N)N)C(N)=O)[C@H](C)O)C(C)C)[C@H](C)O [Peptide 77, Lauryl-trvartgrsrwrdwarnfmr-NH2] (Lauroyl-[dT][dR][dV][dA][dR][dT]G[dR][dS][dR][dW][dR][dD][dW][dA][dR][dN][dF][dM][dR]-NH2) | 8e ug/mL | 12.5 µg·days/mL | 16 µg/mL (≈ 5.8 µM) | 16 µg/mL (≈ 5.8 µM)

The next lines start with the values.

MIC C. albicans [1] | MIC P. acnes [2] | MIC S. aureus [3] | MIC S. dublin [4] | Compound
32e ug/mL | 25 µg·days/mL | 4 µg/mL (≈ 1.97 µM) | 4 µg/mL (≈ 1.97 µM) | CCCCCCCCCCCC(=O)N[C@H](CCCNC(=N)N)C(=O)N[C@H](CO)C(=O)N[C@H](CCCNC(=N)N)C(=O)N[C@H](Cc1c[nH]c2ccccc12)C(=O)N[C@H](CCCNC(=N)N)C(=O)N[C@H](CC(=O)O)C(=O)N[C@H](Cc1c[nH]c2ccccc12)C(=O)N[C@H](CO)C(=O)N[C@H](CCCNC(=N)N)C(=O)N[C@H](CC(N)=O)C(=O)N[C@H](Cc1ccccc1)C(=O)N[C@H](CCSC)C(=O)N[C@H](CCCNC(=N)N)C(N)=O [Peptide 89, Lauryl-rsrwrdwsrnfmr-NH2] (Lauroyl-[dR][dS][dR][dW][dR][dD][dW][dS][dR][dN][dF][dM][dR]-NH2)
16e ug/mL | 25 µg·days/mL | >64 µg/mL | >64 µg/mL | CSCC[C@H](NC(=O)[C@H](Cc1ccccc1)NC(=O)[C@H](CC(N)=O)NC(=O)[C@H](CCCNC(=N)N)NC(=O)[C@H](CO)NC(=O)[C@H](Cc1c[nH]c2ccccc12)NC(=O)[C@H](CC(=O)O)NC(=O)[C@H](CCCNC(=N)N)NC(=O)[C@H](Cc1c[nH]c2ccccc12)NC(=O)[C@H](CCCNC(=N)N)NC(=O)[C@H](CO)NC(=O)[C@H](CCCNC(=N)N)NC(C)=O)C(=O)N[C@@H](CCCNC(=N)N)C(N)=O [Peptide 91, Ac-RSRWRDWSRNFMR-NH2] (Ac-RSRWRDWSRNFMR-NH2)
